Assay results published in ChEMBL document CHEMBL1201862, “PubChem BioAssay data set” (2004).
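1) Cells in 96-well plates. 2) Compound, 48 h, 5 concentrations. 3) Linear interpolation between surrounding doses. 4) Unreached endpoint = highest concentration. Here, GI50 denotes the concentration required for 50% inhibition of growth.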 Activity calls are given as the source filed them. Rule as the data show it: active = GI50 up to about 1.1 µM and inactive = higher.

Key:
Experiment in all cases: DTP human tumour cell line panel, 48 h
DLD-1 = system: DLD-1
XF498 = system: XF498
HOP-18 = system: HOP-18
M19-MEL = system: M19-MEL
SNB-78 = system: SNB-78
DMS-273 = system: DMS-273
DMS-114 = system: DMS-114
LXFL 529 = system: LXFL 529
RXF 631 = system: RXF 631

SMILES | GI50 (DLD-1) | GI50 (XF498) | GI50 (HOP-18) | GI50 (M19-MEL) | GI50 (SNB-78) | GI50 (DMS-273) | GI50 (DMS-114) | GI50 (LXFL 529) | GI50 (RXF 631)
CCCC(=O)OC1C(C(O)CO)OC2OC(C)(C)OC21 (stereo unspecified) | > 100 µM (inactive) | > 100 µM (inactive) | > 100 µM (inactive) | > 100 µM (inactive) | > 100 µM (inactive) | > 100 µM (inactive) | > 100 µM (inactive) |  | 
CC1CC(c2cccc3c2OCO3)=Nc2ccccc2S1 (stereo unspecified) | > 100 µM (inactive) | > 100 µM (inactive) |  | > 100 µM (inactive) | > 100 µM (inactive) | > 100 µM (inactive) | 65.6 µM (inactive) | > 100 µM (inactive) | 
CCCCN(CCCC)CC(C(C)=O)C(c1ccccc1)c1c(O)c2ccccc2oc1=O (stereo unspecified) | > 100 µM (inactive) | > 100 µM (inactive) | > 100 µM (inactive) | > 100 µM (inactive) | > 100 µM (inactive) | > 100 µM (inactive) | 91 µM (inactive) | > 100 µM (inactive) | > 100 µM (inactive)
O=C(CC(CC(=O)Oc1c(Br)cc(Br)cc1C(=O)O)C(=O)Oc1c(Br)cc(Br)cc1C(=O)O)Oc1c(Br)cc(Br)cc1C(=O)O | 65 µM (inactive) | 0.504 µM (active) |  | > 100 µM (inactive) | 49.2 µM (inactive) | > 100 µM (inactive) | 31.8 µM (inactive) | 58.6 µM (inactive) | 
CN(C)c1ccc(-c2nc(N)nc3c2CCCC3)cc1 | 54.5 µM (inactive) | 19.4 µM (inactive) |  | 45 µM (inactive) | 64.7 µM (inactive) | 50.2 µM (inactive) | 38.5 µM (inactive) | 63.8 µM (inactive) | 
CC(=O)C1C(c2ccc(N(C)C)cc2)c2cc3c(cc2OC1(C)O)OCO3 (stereo unspecified) | 59.3 µM (inactive) | 34 µM (inactive) | 68.9 µM (inactive) | 45.2 µM (inactive) | 56 µM (inactive) | 29.4 µM (inactive) | 33.3 µM (inactive) |  | 
Cc1nc(Nc2ccccc2)sc1C(=O)NNc1ccc([N+](=O)[O-])cc1[N+](=O)[O-] | 25.5 µM (inactive) | 24.3 µM (inactive) | 21.5 µM (inactive) | 36 µM (inactive) | 49.2 µM (inactive) | 25.7 µM (inactive) | 23.3 µM (inactive) | 28.7 µM (inactive) | 
Cc1ccc(S(=O)(=O)SCc2ccccc2CSS(=O)(=O)c2ccc(C)cc2)cc1 | 15.2 µM (inactive) | 24.2 µM (inactive) | > 100 µM (inactive) | 23.5 µM (inactive) | 20.1 µM (inactive) | 21.1 µM (inactive) | 70.8 µM (inactive) | 15.5 µM (inactive) | > 100 µM (inactive)
CC(=O)OCC1OC(n2cc(F)c(=O)[nH]c2=O)C(NC(=O)N(CCCl)N=O)C(OC(C)=O)C1OC(C)=O (stereo unspecified) | > 100 µM (inactive) | 36.4 µM (inactive) | > 100 µM (inactive) | > 100 µM (inactive) | > 100 µM (inactive) | > 100 µM (inactive) | 81.3 µM (inactive) | > 100 µM (inactive) | 
CC(=O)c1cccc(N2COC(C)(C)c3nc4ccccc4n3C2)c1 | > 100 µM (inactive) | > 100 µM (inactive) | > 100 µM (inactive) | > 100 µM (inactive) | > 100 µM (inactive) | > 100 µM (inactive) | > 100 µM (inactive) | > 100 µM (inactive) | 
O=C(N/C(=C\c1ccccc1O)c1nc2ccccc2[nH]1)c1ccccc1 |  | > 100 µM (inactive) | 63.5 µM (inactive) | > 100 µM (inactive) | 43.5 µM (inactive) | 56.6 µM (inactive) | 41.5 µM (inactive) | 51.2 µM (inactive) | 
CS/C(=N/C#N)NCCc1c[nH]c2ccccc12 | > 100 µM (inactive) | 34.8 µM (inactive) |  | > 100 µM (inactive) | > 100 µM (inactive) | > 100 µM (inactive) | 60.1 µM (inactive) | > 100 µM (inactive) | 
CN(C)CC/C(=N\Nc1ccc(Cl)cc1)c1ccccc1 | 0.409 µM (active) |  | 2.13 µM (inactive) | 1.7 µM (inactive) | 1.38 µM (inactive) | 0.366 µM (active) | 0.933 µM (active) | 0.182 µM (active) | 
CC(=O)Nc1cc2c(s1)CCC1CC(=O)NN=C21 (stereo unspecified) |  | > 100 µM (inactive) |  | > 100 µM (inactive) | > 100 µM (inactive) | > 100 µM (inactive) | > 100 µM (inactive) | > 100 µM (inactive) | 
COc1ccc2c(c1)C=C(C(C)(C)C)NS2(=O)=O | > 100 µM (inactive) |  | > 100 µM (inactive) | > 100 µM (inactive) | > 100 µM (inactive) | > 100 µM (inactive) | > 100 µM (inactive) | > 100 µM (inactive) | > 100 µM (inactive)
CCOC(=O)C1=NC(c2ccccc2)(c2ccccc2)OC1=C(Cl)Cl | 80.7 µM (inactive) |  | > 100 µM (inactive) | 29 µM (inactive) | 96.4 µM (inactive) |  |  | 65.5 µM (inactive) | 50.9 µM (inactive)
Nc1ncnc2c1nnn2C1C=C(CO)C(O)C1O (stereo unspecified) | 35.2 µM (inactive) | > 100 µM (inactive) | 95.3 µM (inactive) | > 79.1 µM (inactive) | > 86.7 µM (inactive) | 44 µM (inactive) | 44.5 µM (inactive) | > 100 µM (inactive) | 
N#CC(C#N)C(c1ccccc1)c1ccccc1 | > 100 µM (inactive) |  | > 100 µM (inactive) |  | > 100 µM (inactive) | > 100 µM (inactive) | 70.8 µM (inactive) | > 100 µM (inactive) | > 100 µM (inactive)
O=C1CCC(=O)c2sccc2N1 | > 100 µM (inactive) | > 100 µM (inactive) | > 100 µM (inactive) | > 100 µM (inactive) | > 100 µM (inactive) | > 100 µM (inactive) | > 100 µM (inactive) | > 100 µM (inactive) | 
CCOc1ccc(NC(=O)C2=C(C)NC(C)=C(C(=O)Nc3ccc(OCC)cc3)C2c2ccccc2)cc1 | 97.7 µM (inactive) | > 100 µM (inactive) |  | > 100 µM (inactive) | > 100 µM (inactive) | > 100 µM (inactive) | 44.2 µM (inactive) | 51.3 µM (inactive) | > 100 µM (inactive)
CC1(C)COC(c2cccc3c2C(=O)c2cccc(Cl)c2-3)=N1 |  | 46.7 µM (inactive) |  |  | 97.1 µM (inactive) | 51.4 µM (inactive) | 36 µM (inactive) | 37.7 µM (inactive) | 74.3 µM (inactive)
COc1cc(/C=C(\C#N)C(=O)c2ccccc2)ccc1OCc1ccccc1 |  | > 100 µM (inactive) |  | > 100 µM (inactive) | > 100 µM (inactive) |  | > 100 µM (inactive) |  | 
N#CCc1ccc(C(C#N)/C(CCCC(=O)Nc2cccc([N+](=O)[O-])c2)=N/NC(N)=S)cc1 (stereo unspecified) | 87.5 µM (inactive) |  | > 100 µM (inactive) |  | 57.7 µM (inactive) | > 100 µM (inactive) | 99.1 µM (inactive) | 92 µM (inactive) | 86.5 µM (inactive)
O=C1C(Br)=C[C@H]2C3C=CC(Br)(C3=O)[C@@H]12 (stereo partly specified) | 7.57 µM (inactive) | 17.5 µM (inactive) | 49.4 µM (inactive) | 11.8 µM (inactive) | 94.8 µM (inactive) | 12.8 µM (inactive) | 14 µM (inactive) | 10.2 µM (inactive) | 14.4 µM (inactive)
CCCn1c(SCC)c2cc3cc4ccccc4cc3cc2c1-c1nc(F)nc(F)n1 |  | > 100 µM (inactive) |  | > 100 µM (inactive) | > 100 µM (inactive) | > 100 µM (inactive) | > 100 µM (inactive) | > 100 µM (inactive) | > 100 µM (inactive)
C=C(CN(C)C)C(=O)c1ccccc1 | 2.11 µM (inactive) | 15.4 µM (inactive) | 3.52 µM (inactive) | 9.33 µM (inactive) | 22.2 µM (inactive) | 13.7 µM (inactive) | 3.1 µM (inactive) | 2.15 µM (inactive) | 24.1 µM (inactive)
